In brackets after ≈: the same amount, converted by molar mass.
Key:
[1] = tested on: M. tuberculosis H37Rv; test: Microplate Alamar Blue Assay (MABA), in vitro antituberculosis activity (MIC); assay type: cell-based; conditions: Mycobacterium tuberculosis, 96-well plate
[2] = Cytotoxicity using Vero cells; conditions: African green monkey, Vero cells
[3] = tested on: Vero cells; test: Cytotoxicity using Vero cells
[4] = tested on: M. tuberculosis H37Rv; test: In vivo acute M. tuberculosis H37Rv infection assay in mice; set-up: species or system Mycobacterium tuberculosis; conditions: for logCFU/lung: BALB/c mice infected with M. tuberculosis H37Rv, 20 mg/kg, after 30 days of treatment, mean ± SD, n = 5
[5] = Preliminary mouse pharmacokinetic study; conditions: plasma, po, 20 mg/kg
[6] = Preliminary multidose in vivo toxicity study in mice; conditions: oral 500 mg/kg once daily for 4 days; for Safety in mice (in words): 7-day observation; for Number of animals that survived/Total number of animals: followed by 7-day observation
[7] = as compared to CFZ
[8] = mouse model infected by M. tuberculosis H37Rv

Row | SMILES | MIC [1] [µg/mL] | IC50 [2] [µg/mL] | melting point [°C] | SI (selectivity index IC50/MIC) [3] | other results
1 | COc1ncccc1Nc1cc2nc3ccccc3n(-c3ccc(Cl)c(Cl)c3)c-2cc1=NC(C)C [Compound 21, 5-(3,4-Dichlorophenyl)-3-isopropylimino-2-(2-methoxy-3-pyridyl)amino-3,5-dihydrophenazine] | 0.099 (≈ 0.196 µM) | > 64 | 245 to 247 |  | 
2 | COc1ncccc1Nc1cc2nc3ccccc3n(-c3cccc(Cl)c3)c-2cc1=NC1CCCCC1 [Compound 13, 5-(3-Chlorophenyl)-3-cyclohexylimino-2-(2-methoxy-3-pyridyl)amino-3,5-dihydrophenazine] | 0.057 (≈ 0.112 µM) | 53.3 (≈ 104 µM) | 197 to 201 | 934 | 
3 | COc1ncccc1Nc1cc2nc3ccccc3n(-c3ccc(F)cc3)c-2c/c1=N\C(C)C [TBI-1004, reference compound] | 0.038 (≈ 0.0838 µM) | > 64 |  |  | 
4 | COc1ncccc1Nc1cc2nc3ccccc3n(-c3ccc(Cl)c(Cl)c3)c-2cc1=NC1CCC1 [Compound 23, 5-(3,4-Dichlorophenyl)-3-cyclobutylimino-2-(2-methoxy-3-pyridyl)amino-3,5-dihydrophenazine] | 0.06 (≈ 0.116 µM) | > 64 | 216 to 219 |  | 
5 | COc1ncccc1Nc1cc2nc3ccccc3n(-c3ccc(F)c(F)c3)c-2cc1=NC(C)C [Compound 15, 5-(3,4-Difluorophenyl)-3-isopropylimino-2-(2-methoxy-3-pyridyl)amino-3,5-dihydrophenazine] | 0.066 (≈ 0.14 µM) | > 64 |  |  | logCFU/lung [4]: 4.56 ± 0.38; Efficacy in mouse model (in words) [4, 8]: excellent efficacy; Reduction of bacterial burden in the lungs as compared to the untreated control group ([4]; mouse model infected by M. tuberculosis H37Rv, lungs): 3.8 logs colony forming units (CFU); AUC(0-t) [5]: 21200 ng·h/mL; Cmax [5]: 1840 ng/mL; Tmax [5]: 2 h; half-life [5]: 13.8 h; Safety in mice (in words) [6]: good safety; Number of animals that survived/Total number of animals [6]: 5/5; Discoloration of the ears, internal organs and fat tissues of the mice [7]: less intense
6 | COc1ncccc1Nc1cc2nc3ccccc3n(-c3ccc(F)c(F)c3)c-2cc1=NC1CC1 [Compound 16, 5-(3,4-Difluorophenyl)-3-cyclopropylimino-2-(2-methoxy-3-pyridyl)amino-3,5-dihydrophenazine] | 0.014 (≈ 0.0298 µM) | 25.5 (≈ 54.3 µM) | 213 to 214 | 1822 | 
7 | COc1ncccc1Nc1cc2nc3ccccc3n(-c3ccc(F)c(F)c3)c-2cc1=NC1CCC1 [Compound 17, 5-(3,4-Difluorophenyl)-3-cyclobutylimino-2-(2-methoxy-3-pyridyl)amino-3,5-dihydrophenazine] | 0.04 (≈ 0.0827 µM) | > 64 | 200 to 201 |  | 
8 | COc1ncccc1Nc1cc2nc3ccccc3n(-c3ccc(F)c(F)c3)c-2cc1=NC1CCOCC1 [Compound 19, 5-(3,4-Difluorophenyl)-3-(4-tetrahydropyranyl)imino-2-(2-methoxy-3-pyridyl)amino-3,5-dihydro-phenazine] | 0.067 (≈ 0.13 µM) | > 64 | 255 to 256 |  | 
9 | COc1ncccc1Nc1cc2nc3ccccc3n(-c3cccc(Cl)c3)c-2cc1=NC1CC1 [Compound 11, 5-(3-Chlorophenyl)-3-cyclopropylimino-2-(2-methoxy-3-pyridyl)amino-3,5-dihydrophenazine] | 0.03 (≈ 0.0641 µM) | 50.9 (≈ 109 µM) | 211 to 214 | 1696 | 
10 | COc1ncccc1Nc1cc2nc3ccccc3n(-c3ccc(F)c(F)c3)c-2cc1=NC1CCCCC1 [Compound 18, 5-(3,4-Difluorophenyl)-3-cyclohexylimino-2-(2-methoxy-3-pyridyl)amino-3,5-dihydrophenazine] | 0.03 (≈ 0.0586 µM) | > 64 | 218 to 219 |  | 
11 | COc1ncccc1Nc1cc2nc3ccccc3n(-c3cccc(F)c3)c-2cc1=NC1CCOCC1 [Compound 9, 5-(3-Fluorophenyl)-3-(4-tetrahydropyranyl)imino-2-(2-methoxy-3-pyridyl)amino-3,5-dihydro-phenazine] | 0.061 (≈ 0.123 µM) | 9.21 (≈ 18.6 µM) | 190 to 191 | 151 | 
12 | COc1ncccc1Nc1cc2nc3ccccc3n(-c3cccc(Cl)c3)c-2cc1=NC1CCOCC1 [Compound 14, 5-(3-Chlorophenyl)-3-(4-tetrahydropyranyl)imino-2-(2-methoxy-3-pyridyl)amino-3,5-dihydrophenazine] | 0.025 (≈ 0.0488 µM) | 23.4 (≈ 45.7 µM) | 203 to 206 | 936 | 
13 | COc1ncccc1Nc1cc2nc3ccccc3n(-c3ccc(F)c(F)c3)c-2cc1=NC1CCC(OC)CC1 (centres unmarked) [Compound 20, 5-(3,4-Difluorophenyl)-3-(4-methoxycyclohexyl)imino-2-(2-methoxy-3-pyridyl)amino-3,5-dihydro-phenazine] | 0.056 (≈ 0.103 µM) | > 64 | 214 to 215 |  | 
14 | COc1ncccc1Nc1cc2nc3ccccc3n(-c3ccc(Cl)c(Cl)c3)c-2cc1=NC1CC1 [Compound 22, 5-(3,4-Dichlorophenyl)-3-cyclopropylimino-2-(2-methoxy-3-pyridyl)amino-3,5-dihydrophenazine] | 0.025 (≈ 0.0498 µM) | > 64 |  |  | logCFU/lung [4]: 8.06 ± 0.13; Efficacy in mouse model (in words) [4, 8]: failed to display efficacy; Safety in mice (in words) [6]: good safety; Number of animals that survived/Total number of animals [6]: 6/6
15 | COc1ncccc1Nc1cc2nc3ccccc3n(-c3cccc(Cl)c3)c-2cc1=NC1CCC1 [Compound 12, 5-(3-Chlorophenyl)-3-cyclobutylimino-2-(2-methoxy-3-pyridyl)amino-3,5-dihydrophenazine] | 0.06 (≈ 0.124 µM) | > 64 | 205 to 208 |  | 
16 | COc1ncccc1Nc1cc2nc3ccccc3n(-c3ccc(Cl)c(Cl)c3)c-2cc1=NC1CCC(OC)CC1 (centres unmarked) [Compound 25, 5-(3,4-Dichlorophenyl)-3-(4-methoxycyclohexyl)imino-2-(2-methoxy-3-pyridyl)amino-3,5-dihydro-phenazine] | 0.059 (≈ 0.103 µM) | > 64 | 215 to 217 |  | 
17 | COc1ncccc1Nc1cc2nc3ccccc3n(-c3cccc(Cl)c3)c-2cc1=NC(C)C [Compound 10, 5-(3-Chlorophenyl)-3-isopropylimino-2-(2-methoxy-3-pyridyl)amino-3,5-dihydrophenazine] | 0.25 (≈ 0.532 µM) | 5.1 (≈ 10.9 µM) | 215 to 217 | 20 | 
18 | CC(C)/N=c1\cc2n(-c3ccc(Cl)cc3)c3ccccc3nc-2cc1Nc1ccc(Cl)cc1 [CFZ, Clofazimine, reference compound] | 0.12 (≈ 0.253 µM) | 68.6 (≈ 145 µM) |  | 572 | logCFU/lung [4]: 4.29 ± 0.58; AUC(0-t) [5]: 8220 ng·h/mL; Cmax [5]: 470 ng/mL; Tmax [5]: 2 h; half-life [5]: 27.1 h
19 | COc1ncccc1Nc1cc2nc3ccccc3n(-c3ccc(Cl)c(Cl)c3)c-2cc1=NC1CCOCC1 [Compound 24, 5-(3,4-Dichlorophenyl)-3-(4-tetrahydropyranyl)imino-2-(2-methoxy-3-pyridyl)amino-3,5-dihydro-phenazine] | 0.08 (≈ 0.146 µM) | > 64 | 232 to 233 |  | 
20 | COc1ncccc1Nc1cc2nc3ccccc3n(-c3cccc(F)c3)c-2cc1=NC(C)C [Compound 8, 5-(3-Fluorophenyl)-3-isopropylimino-2-(2-methoxy-3-pyridyl)amino-3,5-dihydrophenazine] | 0.06 (≈ 0.132 µM) | 2.65 (≈ 5.84 µM) | 198 to 199 | 44 | 

Source: paper PMC6271099, “Synthesis and Biological Evaluation of Novel 2-Methoxypyridylamino-Substituted Riminophenazine Derivatives as Antituberculosis Agents” (Molecules, 2014)
